≈ marks a conversion by molar mass, not a printed value. Where two headings read alike, the source gives them in different places.
Key:
rabbits = test: Acute dermal toxicity test; format: in vivo; conditions: classification according to federal regulations
Method: (§1) The thiocarbamylsulfenamide compounds were also evaluated as to their oral, dermal, and inhalation toxicity. The techniques employed are specified in Section 362.116 of the Regulations for the Enforcement of the Federal Insecticide, Fungicide, and Rodenticide Act, Interpretation 18 (Revised, Federal Register, April 4, 1969), or in the Federal Hazardous Substances Act. (Revised, Federal Register, September 17, 1964). Acute oral LD50, acute dermal LD50, and acute inhalation LC50 were determined; LD50 being the lethal dose for 50% of the test animals and LC50 being the lethal concentration for 50% of the test animals. Acute oral and acute inhalation tests were run using rats, while acute dermal testing was run using rabbits.
(§2) Two of the compounds evaluated for their activity against organisms (compounds A and G respectively in Example V) were tested for their toxicity following the procedure previously given in the specification.

[1] = Acute dermal toxicity test; format: in vivo, rabbits; conditions: rabbit, in vivo, topical or ocular; rabbits, dermal
Method: as §1, §2

[2] = Storage stability test, melting point, appearance and odor before and after aging; format: physicochemical; conditions: for Melting point, after aging: air oven, closed bottles
Method: (§3) D. Storage Stability Tests.
In addition to the titration test, other tests were run. The melting point of the compound was measured both before and after aging. Little or no change in melting point indicates good storage stability. Further, observations were made upon the appearance and odor of the compounds before and after aging.
(§4) This is important if the compounds are going to be used in disinfectant solutions, and stored and marked without a significant loss in activity against organisms. […] The compounds were aged in an air oven, while in closed bottles. The test methods used were previously described.

[3] = Storage stability test, purity by titration before and after aging; format: physicochemical; conditions: for Percent Purity, after aging: air oven, closed bottles
Method: as §3
Thiocarbamylsulfenamide compounds were tested for their stability upon storage at room temperature and after mild thermal aging. The principle test employed consisted of measuring the purity of a sample before and after aging. This was done by titrating a sample solution of the compound using potassium iodide, KI, and sodium thiosulfate, Na2 S2 O3. A 0.5 to 1.0 gram sample of the compound is weighed out and dissolved in 10 milliliters of chloroform. […] The calculations are: [formula] The value obtained is the percent by weight of the sample that is the desired thiocarbamylsulfenamide. The titration is run on the sample before and after aging. The change in purity of the compound indicates its decomposition upon storage.
as §4

Acute oral toxicity test = conditions: rat, in vivo, rats
Method: as §1, §2

rats = test: Acute inhalation toxicity test; format: in vivo; conditions: classification according to federal regulations
Method: as §1, §2

[4] = Acute inhalation toxicity test; format: in vivo, rats; conditions: rat, in vivo, inhaled or intranasal; rats, inhalation
Method: as §1, §2

[5] = test system: various infectious organisms; test: Activity against organisms, overall (Agar Screening Test and/or Penicillin Button Assay Test); format: cell-based; conditions: organisms (a) to (d)
From the text: A. Agar Screening Test for Activity.
B. Penicillin Button Assay Test.

[6] = test system: various infectious organisms; conditions: U.S. Pat. No. 2,692,862; cited from earlier work
[7] = before aging, sample for 50 °C, 10 days
[8] = before aging, sample for 80 °C, 16 hrs.

In the case of `CN(C)C(=S)SN(C1CCCCC1)C1CCCCC1` [Compound A, N,N-dimethylthiocarbamyl-N',N'-dicyclohexylsulfenamide], the “toxicity by dermal absorption (in words)” value (rabbits) is reported as “non-toxic”, the LD50 [1] is reported as greater than 10000 mg/kg and the “Amine odor, after aging” value ([2]; 50 °C, 10 days) is reported as “slight”. The “Melting point, after aging” value ([2]; 50 °C, 10 days) was 85-87 °C, the “Amine odor, after aging” value ([2]; 80 °C, 16 hrs.) was “slight” and the “Color, after aging” value ([2]; 80 °C, 16 hrs.) was “white”. The “Melting point, after aging” value ([2]; 80 °C, 16 hrs.) was 83-85 °C, the “Amine odor, before aging” value ([2]; sample for 50 °C, 10 days) was “slight” and the “Color, before aging” value ([2]; sample for 50 °C, 10 days) was “white”. The “Melting point, before aging” value ([2]; sample for 50 °C, 10 days) was 85-87 °C, the “Amine odor, before aging” value ([2]; sample for 80 °C, 16 hrs.) was “slight” and the “Color, before aging” value ([2]; sample for 80 °C, 16 hrs.) was “white”. For the same compound, the “Melting point, before aging” value ([2]; sample for 80 °C, 16 hrs.) was 84-85 °C, the “Percent Purity, after aging” value ([3]; after aging, 50 °C, 10 days) was 99% and the “Percent Purity, after aging” value ([3]; after aging, 80 °C, 16 hrs.) was 97%. The “Percent Purity, before aging” value [3, 7] was 99%, the “Percent Purity, before aging” value [3, 8] was 100% and the LD50 (Acute oral toxicity test) was 1100 mg/kg. The “toxicity by inhalation (in words)” value (rats) was “non-toxic”, the LC50 [4] was 78 µg/mL (≈ 260 µM) and the “activity against organisms (in words)” value [5] was “good activity against organisms”.

For `CCN(CC)C(=S)SNc1ccccc1` [I, N,N-diethylthiocarbamyl-N'-phenylsulfenamide], the “activity against organisms (in words)” value [5] was “very little activity”.

With `CCCCCCCCCCCCCCCCCCCCN(CCCCCCCCCCCCCCCCCCCC)C(=S)SN(C1CCCCC1)C1CCCCC1` [D, N,N-dieicosylthiocarbamyl-N',N'-dicyclohexylsulfenamide] the “activity against organisms (in words)” value [5] was “no activity”.

For `CN(C)C(=S)SNc1ccccc1` [Compound H, N,N-dimethylthiocarbamyl-N'-phenylsulfenamide], the “activity against organisms (in words)” value [5] was “good activity”.

In the case of `S=C(SN(C1CCCCC1)C1CCCCC1)N1CCOCC1` [E, N-oxydiethylenethiocarbamyl-N',N'-dicyclohexylsulfenamide], the “activity against organisms (in words)” value [5] is reported as “almost no activity”.

In the case of `CN(C)SC(=S)N(C)C` [J, N,N-dimethylthiocarbamyl-N',N'-dimethylsulfenamide, reference compound], the “Amine odor, after aging” value ([2]; 50 °C, 10 days) is reported as “strong”, the “Color, after aging” value ([2]; 50 °C, 10 days) is reported as “yellow” and the “Melting point, after aging” value ([2]; 50 °C, 10 days) is reported as 34-39 °C. The “Amine odor, before aging” value ([2]; sample for 50 °C, 10 days) was “slight”, the “Melting point, before aging” value ([2]; sample for 50 °C, 10 days) was 49-51 °C and the “Percent Purity, after aging” value ([3]; after aging, 50 °C, 10 days) was 77%. The “Percent Purity, before aging” value [3, 7] was 96% and the “known activity against organisms (in words)” value [6] was “known to have activity against organisms”.

With `CCN(CC)C(=S)SN(C1CCCCC1)C1CCCCC1` [Compound B, N,N-diethylthiocarbamyl-N',N'-dicyclohexylsulfenamide] the “activity against organisms (in words)” value [5] was “good activity”.

For `S=C(SN1CCOCC1)N1CCOCC1` [Compound G, N-oxydiethylenethiocarbamyl-N'-oxydiethylenesulfenamide], the “toxicity by dermal absorption (in words)” value (rabbits) was “non-toxic”, the LD50 [1] was greater than 10000 mg/kg and the “Amine odor, after aging” value ([2]; 80 °C, 16 hrs.) was “slight”. The “Melting point, after aging” value ([2]; 80 °C, 16 hrs.) was 135-139 °C, the “Amine odor, before aging” value ([2]; sample for 80 °C, 16 hrs.) was “slight” and the “Color, before aging” value ([2]; sample for 80 °C, 16 hrs.) was “white”. For the same compound, the “Melting point, before aging” value ([2]; sample for 80 °C, 16 hrs.) was 136-139 °C, the “Percent Purity, before aging” value [3] was 98 and the “Percent Purity, after aging” value ([3]; 16 h) was 98. The LD50 (Acute oral toxicity test) was 5100 mg/kg, the “toxicity by inhalation (in words)” value (rats) was “non-toxic” and the LC50 [4] was 164 µg/mL (≈ 660 µM). For the same compound, the “activity against organisms (in words)” value [5] was “good activity against organisms”.

For `CCCCN(CCCC)C(=S)SN(C1CCCCC1)C1CCCCC1` [C, N,N-dibutylthiocarbamyl-N',N'-dicyclohexylsulfenamide], the “activity against organisms (in words)” value [5] was “no activity”.

With `CC(C)N(SC(=S)N(C)C)C(C)C` [K, N,N-dimethylthiocarbamyl-N',N'-diisopropylsulfenamide, reference compound] the “Amine odor, after aging” value ([2]; 80 °C, 16 hrs.) was “strong”, the “Melting point, after aging” value ([2]; 80 °C, 16 hrs.) was 53-54 °C and the “Amine odor, before aging” value ([2]; sample for 80 °C, 16 hrs.) was “mild”. For the same compound, the “Color, before aging” value ([2]; sample for 80 °C, 16 hrs.) was “white”, the “Melting point, before aging” value ([2]; sample for 80 °C, 16 hrs.) was 56-57 °C and the “Percent Purity, after aging” value ([3]; after aging, 80 °C, 16 hrs.) was 89%. The “Percent Purity, before aging” value [3, 8] was 93% and the “known activity against organisms (in words)” value [6] was “known to have activity against organisms”.
